One compound from US20240247031A1, “COMPOSITION FOR TREATING CANCER CONTAINING TELOMERASE-TARGETING GNRH ANTAGONIST-DERIVED PEPTIDE HS1002” (Research & Business Foundation Sungkyunkwan University, priority 2023, published 2024) can be followed below.

The subject of assay [1] is c-Myc, AKT, ERK1/2 in LNCaP tumor xenografts. Kind of assay: Western blot of c-Myc and signaling proteins in LNCaP-xenografted tumors (FIG. 14). It is filed as in vivo, mouse. Particulars: LNCaP xenograft; HS1002 1 mg/kg/day, LA 0.1 mg/kg/day s.c. As for the experimental part:
The cells and tumor tissues were homogenized using the PRO-PREP™ extraction solution (iNtRON Biotechnology, Seongnam, Korea). After incubation, the homogenate was centrifuged at 16,000×g for 20 min at 4° C., and the supernatant was collected for western blot analysis. Subsequently, an equivalent quantity of protein was separated using sodium dodecyl sulfate polyacrylamide gels and transferred onto a polyvinylidene difluoride (PVDF) membrane. The PVDF membranes were incubated with the primary antibodies overnight at 4° C., washed with tris-buffered saline, and then incubated with HRP-conjugated anti-mouse or anti-rabbit antibodies. The bands were visualized using a ChemiDoc imaging system (Bio-Rad, Hercules, CA, USA). The band intensities were determined using an Image J software.
All mice were purchased from Central Lab Animal Inc. ([…]). They were raised in a 12 h environmental light/dark cycle with controlled temperature (22±2° C.) conditions. The experimental protocol was approved by the Sungkyunkwan University Institutional Animal Care and Use Committee (SKKUIACUC2021-06-27-1, SKKUIACUC2023-01-07-1). For the establishment of tumors, LNCaP (1×10^7), MC38 (2×10^5), and 4T1 (1×10^6) suspended in serum-free media containing 50% Matrigel was subcutaneously administered in the right flank of mice, respectively. The tumor volumes (V) were calculated using a caliper and the standard equation: V (mm^3)=0.52 (ab^2) (a=length, b=width). Once the tumor reached 100-200 mm^3, the mice were randomly divided into different groups and subcutaneously injected with a vehicle or each peptide every day.
To investigate the anticancer effect of HS1002, the present inventors observed the volume of cancer cells after transplanting the cancer cells into experimental animals. Specifically, mice (4-week-old male BALB/c nude mice; Central Lab. Animal Inc., Seoul, Korea) were prepared, and tumor cells (1×10^7 LNCaP cells) suspended in 1 mL of a serum-free medium containing 50% Matrigel were percutaneously injected into the upper flank of each nude mouse. When the tumor cell volume reached about 200 mm^3, the mice were randomly assigned to a vehicle control group, a leuprolide acetate-treated group, and test groups (GV1001-treated group and HS1002-treated group), respectively. Leuprolide acetate (0.1 mg/kg/day) and GV1001 and HS1002 (1 mg/kg/day) were injected subcutaneously for 13 days.
(In general: In western blotting, separated proteins are transferred to a membrane and probed.)

Assay [2] addresses T1, HEK293-GnRHR cells (Homo sapiens, UniProt P30968).
T1 construct: GFP; expressed in transfected cells
T1 sequence (P30968 1-328): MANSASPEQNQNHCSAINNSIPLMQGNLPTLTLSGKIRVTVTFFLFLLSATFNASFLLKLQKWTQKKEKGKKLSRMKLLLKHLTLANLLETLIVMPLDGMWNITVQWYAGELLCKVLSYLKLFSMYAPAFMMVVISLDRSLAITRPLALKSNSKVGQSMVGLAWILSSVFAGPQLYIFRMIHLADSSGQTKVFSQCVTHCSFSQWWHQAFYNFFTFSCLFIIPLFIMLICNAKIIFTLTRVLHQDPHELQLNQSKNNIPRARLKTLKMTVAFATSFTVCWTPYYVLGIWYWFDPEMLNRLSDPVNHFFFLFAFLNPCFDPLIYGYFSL
Kind of assay: Intracellular calcium flux assay. Particulars: 100 nM. It is filed as cell-based. As for the experimental part:
(§1) Human embryonic kidney cell line (HEK293), and mouse cancer cell lines (MC38, 4T1) were purchased from the American Type Culture Collection (Manassas, VA, USA). All cell lines were grown in Dulbecco's Modified Essential Medium (DMEM) or Roswell Park Memorial Institute (RPMI) 1640 supplemented with 10% FBS, 100 U/mL penicillin, and 100 μg/mL streptomycin (WelGENE, Daegu, South Korea) in a humidified atmosphere of 5% CO2 at 37° C. To obtain GnRHR-overexpressing HEK293 (HEK293-GnRHR) cells, transfection of the pCMV-AC-GFP-GnRHR vector (HEK293-GnRHR) was performed using Lipofectamine™ 3000 according to the manufacturer's instructions (Cat. 100022052, Thermo Fisher Scientific, Waltham, MA, USA). Colonies of geneticin-resistant cells were selected by adding G418 (800 μg/mL, Sigma) to the culture medium. The HEK293-pCMV-AC-GFP vector (HEK293-Vector) cells were used as a mock-transfection group.
Intracellular calcium mobilization was measured using the Calcium Flux Assay Kit (Cat. ab233472, abcam) in response to different concentrations of each peptide. The percentage increase was calculated relative to basal fluorescence intensity. The experiment was performed in triplicate.
On the technique in general: Calcium flux is commonly read through the fluorescence of an indicator in the cells.

Another assay relates to HEK293-Vector cells. Kind of assay: CRE-luciferase reporter assay, mock-transfected cells. The format is cell-based, human. As to the method:
as §1, with “group. […] The transfected cells were exposed to different concentrations of peptide for 24 h, and the promoter activity was measured by a dual-luciferase reporter assay system (BPS Bioscience). The firefly and Renilla luciferase activities were measured using a microplate luminometer (Thermo, Varioskan LUX Multimode Microplate Reader). […]” for “group.”
For orientation: A reporter such as luciferase makes a cellular process visible.

Assay [3] has as its target T1, HEK293-GnRHR cells. Kind of assay: CRE-luciferase reporter assay. Particulars: 100 nM, 24 h. It is filed as cell-based. As to the method:
as §1
The HEK293-pCMV6-AC-GFP and HEK293-GnRHR cells (4×10^4 cells/well) were grown in 96-well plates and co-transfected with a luciferase reporter plasmid containing a cAMP response element (CRE) using Lipofectamine 3000 (Life Technologies). The transfected cells were exposed to different concentrations of peptide for 24 h, and the promoter activity was measured by a dual-luciferase reporter assay system (BPS Bioscience). The firefly and Renilla luciferase activities were measured using a microplate luminometer (Thermo, Varioskan LUX Multimode Microplate Reader). The calculation of relative luciferase activities involved the normalization of the firefly luciferase activity […].

On to `CCNC(=O)[C@@H]1CCCN1C(=O)[C@H](CCCNC(=N)N)NC(=O)[C@H](CC(C)C)NC(=O)[C@@H](CC(C)C)NC(=O)[C@H](Cc1ccc(O)cc1)NC(=O)[C@H](CO)NC(=O)[C@H](Cc1c[nH]c2ccccc12)NC(=O)[C@H](Cc1c[nH]cn1)NC(=O)[C@@H]1CCC(=O)N1` [LA, Leuprolide acetate, reference compound], for which, in assay [1], the “expression of c-Myc in tumor tissue” value is “significantly downregulated”, the “expression of p-AKT in tumor tissue” value was “significantly downregulated” and the “expression of p-ERK1/2 in tumor tissue” value is given as “significantly downregulated”. Besides, at HEK293-GnRHR cells [2], the calcium flux result is listed as “more potent effect of calcium flux in HEK293-GnRHR cells than in HEK293-Vector cells”. Besides, the CRE-luciferase activity entry in the assay with HEK293-Vector cells is “no significant change”. Also, the “CRE-derived reporter gene activity” value on HEK293-GnRHR cells [3] is on record as “induced CRE-derived reporter gene activity”.
